Experimental findings from ChEMBL document CHEMBL1129827, “Discovery of imidazo[1,2-c]pyrimidin-5(6H)-one heterosubstituted nucleoside analogues with potent activity against human hepatitis B virus in vitro” (Bioorg Med Chem Lett, 1997) are described below.

Activity calls are given as the source filed them. The calls are words filed in the database; no cut-off is given here.

Series [1] is described as follows: Compound concentration that cause 50% cytotoxicity was determined by neutral red uptake in 2.2.15 Cells. The class given is cell-based, HepG2 2.2.15. As to conditions: human.
The subject of series [2] is HepG2. Put plainly: Compound concentration required to inhibit 50% of intracellular replicating HBV (Hepatitis B virus) RI in human hepatoma cell line 2.2.15. The class given is functional, cell-based.
Series [3] can be described thus: Selectivity index (SI) is the ratio of CC50/EC90 for HBV virion. Type of series: functional.
Series [4] concerns HepG2. Put plainly: Compound concentration required to inhibit 90% of extracellular replicating HBV (Hepatitis B virus) virion in human hepatoma cell line 2.2.15. The class given is functional.
For series [5], the system named is HepG2. Put plainly: Compound concentration required to inhibit 50% of extracellular replicating HBV (Hepatitis B virus) virion in human hepatoma cell line 2.2.15. The class given is functional, cell-based.
Series [6] can be described thus: Selectivity index (SI) is the ratio of CC50/EC90 for HBV RI. Type of series: functional.
The test system of series [7] is HepG2. Put plainly: Compound concentration required to inhibit 90% of intracellular replicating HBV (Hepatitis B virus) RI in human hepatoma cell line 2.2.15. The class given is functional.
For series [8], the system named is MT4. Put plainly: Compound was evaluated for the inhibition of replication of HIV-1 in MT-4 (human T helper) cells up to 300 uM; Not active. The class given is functional, cell-based.
Series [9] relates to MT4. The series is described as follows: Compound was evaluated for the inhibition of replication of HIV-1 in MT-4 (human T helper) cells up to 300 uM; not active. Type of series: functional, cell-based.

In turn, `O=c1n([C@H]2CO[C@@H](CO)O2)cc(F)c2nc(-c3ccc([N+](=O)[O-])cc3)cn12` had a CC50 in series [1] of 1390 µM. In addition, the EC50 in the series on HepG2 [2] was determined as 7.7 µM; in the series on HepG2 [5], 1.9 µM. The SI in series [3] was found to be 180; in [6] it was 103. Besides, the results for the EC90 in the series with HepG2 [4] and in the series with HepG2 [7] were 5.9 µM and 13.6 µM, respectively.
Turning to `O=c1n([C@H]2CO[C@@H](CO)O2)cc(F)c2nc(CO)cn12`, it took 1060 µM to reach half-maximal cytotoxicity in series [1] (CC50). The EC50 in the series on HepG2 [2] was found to be 29.1 µM; in the series on HepG2 [5], 15.1 µM. In addition, the SI in series [3] turned out to be 36; in series [6] it was 16. Moreover, the figures for the EC90 with HepG2 [4] and in the series on HepG2 [7] were 33.3 µM and 66.6 µM, respectively.
In series [1], `O=c1n([C@H]2CO[C@@H](CO)O2)ccc2nc(-c3ccc([N+](=O)[O-])cc3)cn12` yielded a CC50 of 486 µM. In addition, in series [3], the SI was determined as 45. For the same compound, the EC90 in the series with HepG2 [4] was found to be 10.9 µM. A half-maximal effect in the series on HepG2 [5] (EC50) was put at 2.3 µM.
For `O=c1n(C2COC(CO)O2)ccc2nc(-c3ccc(F)cc3)cn12` (stereo not given), in series [1], the 50% cytotoxic concentration (CC50) turned out to be 850 µM. Further, the SI in series [3] is 34. This compound gave an EC90 with HepG2 [4] of 25.2 µM. For the same compound, the EC50 in the series on HepG2 [5] came out at 4.2 µM.
As to `Nc1ccn([C@H]2CC[C@@H](CO)O2)c(=O)n1` [ZALCITABINE], the CC50 in series [1] stood at 233 µM. Besides, the values for the EC50 in the series with HepG2 [2] and with HepG2 [5] were 3.2 µM and 1.5 µM, respectively. Moreover, the results for the EC90 with HepG2 [4] and in the series on HepG2 [7] were 6.9 µM and 10 µM, respectively. The SI in series [6] was determined as 23.
The compound `O=c1n([C@H]2CO[C@H](CO)O2)cc(F)c2nc(-c3ccc([N+](=O)[O-])cc3)cn12` displayed a CC50 in series [1] of 587 µM. Also, the EC50 with HepG2 [2] came to 12.8 µM; in the series on HepG2 [5], 3.7 µM. Further, the SI in [3] stood at 46; in series [6], 24. For the same compound, the EC90 was determined as 8.8 µM in the series on HepG2 [4] and 25 µM in the series on HepG2 [7]. Further, in the series on MT4 [8], the outcome was inactive.
In series [1], `O=c1n([C@H]2CO[C@H](CO)O2)ccc2nc(-c3ccc([N+](=O)[O-])cc3)cn12` gave a 50% cytotoxic concentration (CC50) of 517 µM. The SI in [3] is 5.7. In the series on HepG2 [4], this compound had an EC90 of 108 µM. The outcome in the series on MT4 [8] was inactive. In the series with HepG2 [5], this compound yielded an EC50 of 12.5 µM.
Take `O=c1n(C2CSC(CO)O2)ccc2nc(CO)cn12` (stereo not given): in series [1], half-maximal cytotoxicity (CC50) was put at 456 µM. For the same compound, in series [3], the SI amounted to 1.7. In addition, the EC90 in the series on HepG2 [4] came to 276 µM. In addition, the EC50 with HepG2 [5] turned out to be 77.7 µM. In addition, the result with MT4 [9] was inactive.
Turning to `CCOC(=O)c1cn2c(=O)n(C3CSC(CO)O3)ccc2n1` (stereo not given), the CC50 in [1] is over 90 µM. This compound registered an EC90 in the series with HepG2 [4] of over 90 µM. The EC50 in the series on HepG2 [5] was over 90 µM.
`O=c1n(C2CSC(CO)O2)ccc2nc(-c3ccc([N+](=O)[O-])cc3)cn12` (stereo not given) registered a CC50 in series [1] of over 26.7 µM. Moreover, in series [3], the SI is over 5.6. For the same compound, the result in the series with MT4 [8] was inactive. In the series with HepG2 [5], this compound had an EC50 of 4.8 µM.
`O=c1n([C@H]2CO[C@H](CO)O2)cc(F)c2nc(CO)cn12` gave a CC50 in series [1] of 1390 µM. The compound further gave an EC90 with HepG2 [4] of over 105 µM. This compound came in with a concentration giving a half-maximal response (EC50) with HepG2 [5] of over 105 µM.
In series [1], `O=c1n(C2COC(CO)O2)ccc2nc(CO)cn12` (stereo not given) showed a CC50 of 618 µM. For the same compound, the SI in series [3] turned out to be 59. This compound also displayed an EC90 in the series on HepG2 [4] of 10.5 µM. This compound gave an EC50 with HepG2 [5] of 2 µM.
